Test results as given in US8324284B2, “Migrastatin analogs and uses thereof” (Sloan-Kettering Institute for Cancer Research, priority 2003, dated 2012).
pIC50: −log10 of the molar value.

Columns and labels:
[1] = system: 4T1 tumor lung metastasis; assay: 4T1 tumor lung metastasis in syngeneic mice; format: in vivo, mouse; conditions: mean and standard deviation
Procedure: (§1) Female BALB/c mice (6-8 week old) were purchased from the Jackson Laboratory (Bar Harbor, Me.). All mice were housed at the Weill Medical College of Cornell University Animal Facilities in accordance with the Principles of Animal Care (NIH publication no. 85-23, revised 1985). 4T1 tumor cells (1×10^5) were injected subcutaneously into the abdominal mammary gland area of mice in 0.1 ml of a single-cell suspension in phosphate buffered saline (PBS) on Day 0. The dosage of tumor implantation was empirically determined to give rise to tumor of ˜10 mm in diameter in untreated wild type mice in 21-23 days. On Day 7, when the tumors averaged in size ˜4-5 mm in diameter, migrastatin analogs or control PBS saline were given every day by intraperitoneal injection at 10 mg/kg or 20 mg/kg per mouse until Day 25. On Day 28, the mice were sacrificed. This regiment of migrastatin analogs was well tolerated with no signs of overt toxicity. Every group included five mice. Primary tumors were measured using electronic calipers on the day when the mice were sacrificed. Tumor size was the square root of the product of two perpendicular diameters. Numbers of metastatic 4T1 cells in lung were determined by the clonogenic assay.^63 In brief, lungs were removed from each mouse on Day 28, finely minced and digested in 5 ml of enzyme cocktail containing 1×PBS and 1 mg/ml collagenase type IV for 2 hours at 37° C. on a platform rocker. After incubation, samples were filtered through 70 uM nylon cell strainers and washed twice with PBS. Resulting cells were suspended and plated serially diluted in 10 cm tissue culture dishes in medium RPMI1640 containing 60 uM thioguanine for clonogenic growth. 6-Thioguanine-resistant tumor cells formed foci after 14 days, at which time they were fixed with methanol and stained with 0.03% methylene blue for counting.
Treatment 4T1 tumor lung metastasis in syngeneic mice with migrastatin analogs (See, FIG. 4). 4T1 tumor cells (10^5) were injected s.c. in the abdominal mammary gland with 0.1 ml of a single-cell suspension. Macroketone or macrolactam at 10 mg/kg or 20 mg/kg was given i.p. on Day 7 when the tumor size was about 5 mm in diameter, and every day until Day 25. On Day 28, the mice were sacrificed. Each group comprised five mice. Lung metastasis was measured by the 6-thiogunine clonogenic assay. The mean and standard deviation are presented. In the control group (daily PBS injection), there were 61300±18900 colonies.

[2] = system: 4T1 tumors; assay: 4T1 primary tumor growth in mice; format: in vivo, mouse; conditions: 10 mg/kg i.p. daily Day 7-25, final tumor size Day 28
Procedure: as §1, with “This regiment of migrastatin analogs was well tolerated with no signs of overt toxicity. Every group included five mice.” left out, “Tumor size was the square root of the product of two perpendicular diameters.” left out, “After incubation, samples were filtered through 70 uM nylon cell strainers and washed twice with PBS. Resulting cells were suspended and plated serially diluted in 10 cm tissue culture dishes in medium RPMI1640 containing 60 uM thioguanine for clonogenic growth. 6-Thioguanine-resistant tumor cells formed foci after 14 days, at which time they were fixed with methanol and stained with 0.03% methylene blue for counting.” left out
Effect of migrastatin analogs on 4T1 tumor cell growth (See, FIG. 5). […] On Day 28, primary tumors were measured using electronic calipers. […]

[3] = system: 4T1 mouse breast tumor cells; assay: Wound-healing assay with 4T1 cells; format: cell-based; conditions: with serum, 200 μM, overnight
Text: In the wound healing assay, standard scratches (i.e., wounds) were made through a confluent 4T1 cell layer. In the absence of serum, cells would not migrate across the empty space created by application of the scratch. Upon addition of serum containing migration-enabling factors, migration of 4T1 cells across the scratch was induced. Exposure to these cells to inventive compounds allowed the evaluation of the cell migration inhibitory activity of these compounds.
Wound-Healing Assay (See FIG. 6). 4T1 mouse breast tumor cells in RPMI-1640 medium containing 10% fetal bovine serum (FBS) were seeded into wells of 24-multiwell plates (Becton-Dickinson). After cells grew to confluence, wounds were made with sterile pipette tips. Cells were washed with Phosphate Buffered Saline (PBS) and refreshed with growth medium containing different concentrations of chemical compounds. After overnight incubation at 37° C., cells were fixed and photographed.

[4] = system: 4T1 tumor cells; assay: Cell proliferation assay (MTT); conditions: up to 20 μM, 48 h
Procedure: Cell Proliferation Assay: 4×10^4 of 4T1 tumor cells in RPMI-1640 medium containing 10% FBS were seeded into wells of 96-multiwell plates (Becton-Dickinson) in the presence or absence of chemical compounds and then incubated at 37° C. for 48 h. An MTT kit (Cell Proliferation Kit I, Roche) (a colorimetric assay) was used to quantify cell proliferation and viability. The number of living cells, thus the total metabolic activity, directly correlates to the amount of purple formazan crystals formed (monitored by the absorbance).

[5] = Metabolic stability in mouse plasma; format: in vitro ADME; conditions: mouse plasma/PBS, 37° C.; for stability (t1/2, mouse plasma), in words: 60 min of incubation, stable = intensity of HPLC signal unchanged
Procedure: Mouse Plasma Stability Studies (Table 5): HPLC conditions: The sample is injected and separated using an Inertsil ODS3 6u 3×150 mm column with a mobile phase of MeCN and water (50% for migrastatin) at a flow of 0.4 mL/min, monitored at 220 nm at 0.02 AUFS (the retention time for migrastatin is ca. 4 min, the identity of this peak was confirmed by mass spectral analysis). Incubation and sample preparation conditions: A solution (ca. 30 mM) of chemical compound (Table 5) in DMSO is prepared. 2 μL of the solution is added to a mixture containing 200 μL of mouse plasma and 800 μL of PBS. The resulting solution is put into a water bath at 37° C., and 100 μL of sample is withdrawn at 10, 20, 30, 45, and 60 min. The precipitate is removed by centrifugation and 20 μL of the supernatant is injected onto the HPLC.

[6] = system: KYSE-520 cells; assay: Wound healing (scratch) assay; format: cell-based; conditions: 28 to 30 h, tested 200, 100, 50, 25, 10 μM
Procedure: The wound healing assay was performed based on the method described by Nakae et al. (Nakae et al., J. Antibiotics (2000), 53, 1130-1136). Briefly, adherent cells were grown in a suitable media to confluence (e.g. KYSE-520 cells in RPMI-1640 with 10% FBS). Cells were starved for 24 h in serum free media. A scratch (ca. 0.5 mm) was applied and the cell layer was washed twice with PBS after removal of the media. Fresh, serum free media with the test compound at the desired concentration was added and the cells were incubated for 28 to 30 h at 37° C., 5% CO2. The scratch size was compared to that observed for cells exposed to 100 μM Migrastatin. Test compounds associated with a scratch size equal to or larger than that observed for cells exposed to 100 μM Migrastatin were deemed to have cell migration inhibitory activity at least equal to Migrastatin.

[7] = system: HUVEC; assay: Tube formation assay; format: cell-based, human; conditions: minimal concentration causing definite disturbance of tube network; 16-18 h; tested 200, 100, 50, 25, 10 μM
Procedure: A protocol was designed based on the instructions from the provider (BD Bioscience, San Jose, Calif.). Briefly, wells of a 48 well culture dish were covert with 150 μL matrigel and the matrigel was gelatinized for 30 min at 37° C. A 80-90% confluent HUVEC (BD Bioscience, San Jose, Calif.) culture was trypsin treated, the detached cells were collected by centrifugation and resuspended in EGM-2 media (BD Bioscience, San Jose, Calif.). Cell concentration was adjusted to 100.000 cells/mL. 400 μL of the cell suspension were filled in the matrigel coated wells, and a solution of the inhibitor was added to the intended final concentration. The plates were incubated at 37° C. with 5% CO2 for 16-18 h. Media was removed, and the matrigel surface was washed twice with 500 μL PBS before cells were labeled with 250 μL […] Calcein AM (Pierce, Rockford, Ill.) in PBS for 30 min at 37° C. After two additional washing steps (500 μL PBS) cells were visualized under an inverted microscope. Fluorescence was excited at 488 nm and recorded at 538 nm. The minimum effect concentration was defined as the minimal inhibitor concentration that caused a definite disturbance of the complexity of the formed tube network.

[8] = system: cell migration; assay: Chamber cell migration assay (preliminary); format: cell-based; conditions: 36 h, tested 200, 100, 50, 25, 10 μM
Procedure: Cells were grown in an appropriate media to 70 to 80% confluence and incubated in serum and growth factor free media for 24 h. Cells were detached by trypsin treatment, collected by centrifugation and resuspended in serum free media to a final concentration of 150,000 cells/mL. 400 μL of the cell suspension were loaded into a fibronectin coated insert for 24 well multidishes. 750 μL fully supplemented media were applied to the compartment under the insert. To both chambers the inhibitor was added at the intended concentration and the plates were incubated for 36 h at 37° C., 5% CO2. […] The resulting CyQuant assay solution was transferred to the cavities of a 96 well microtiter plate and the fluorescence signal was recorded in an appropriate reader. The CyQuant dye forms a highly fluorescent complex with DNA, thus the fluorescence signal is proportional to the number of cells that migrated through the membrane in the presence of the test compound (N^inh). […] The positive control fluorescent reading correlates with the number of cells that migrate through the membrane in the absence of inhibitor (N^+). […] The negative control fluorescent reading correlates with the number of cells that migrate through the membrane through non-directed processes (N^−). The anti-migratory effect of a test compound is determined by the ratio (N^inh−N^−)/(N^+−N^−).

| SMILES | lung metastasis, colonies (6-thioguanine clonogenic assay) ([1]; 10 mg/kg i.p. daily Day 7-25, Day 28) [colonies] | lung metastasis, colonies (6-thioguanine clonogenic assay) ([1]; 20 mg/kg i.p. daily Day 7-25, Day 28) [colonies] | effect on tumor growth in mice [2] | inhibition of 4T1 cell migration across the scratch [3] | cytotoxic or anti-proliferative effects on 4T1 cells [4] | stability (t1/2, mouse plasma) [5] [min] | stability (t1/2, mouse plasma), in words [5] | Minimum effect concentration [6] [µM] | stability (t1/2, mouse plasma), in words ([5]; listed as migrastatin) | Minimum effect concentration [7] [µM] | pIC50 [8] |
| --- | --- | --- | --- | --- | --- | --- | --- | --- | --- | --- | --- |
| COC1C=CCCCCC(=O)CCC(C)=CC(C)C1O (stereo not shown) [macroketone (60), Macroketone] | 3875±2525 | 650±575 | minor effect on tumor growth | – | – | – | – | – | – | – | – |
| COC1C=CCCCCC(=O)OCC(C)=CC(C)C1O (stereo not shown) [macrolactone (48), Macrolactone] | – | – | – | almost completely inhibited cell migration across the scratch | did not have any cytotoxic or anti-proliferative effects up to 20 μM | <5 | hydrolyzed rapidly | – | – | – | – |
| CO[C@H]1/C=C/CC/C=C/C(=O)O[C@H]([C@H](C)C(=O)CCCC2CC(=O)NC(=O)C2)/C(C)=C\[C@@H](C)[C@@H]1O [migrastatin (1), Migrastatin] | – | – | – | not as great | – | – | stable^1 | 100 | completely inert toward lactone opening | 100 | 3.70 |
